Molecules are shown by their SMILES. Calls of active or inactive are those of the source. The rule behind the calls is not given here.

The results in this text go back to ChEMBL document CHEMBL3132771, “Machine-assisted synthesis of modulators of the histone reader BRD9 using flow methods of chemistry and frontal affinity chromatography” (Medchemcomm, 2014).

Assay [1] concerns the target T1, Bromodomain-containing protein 9 (Homo sapiens) (UniProt Q9H8M2).
T1 sequence (whole entry): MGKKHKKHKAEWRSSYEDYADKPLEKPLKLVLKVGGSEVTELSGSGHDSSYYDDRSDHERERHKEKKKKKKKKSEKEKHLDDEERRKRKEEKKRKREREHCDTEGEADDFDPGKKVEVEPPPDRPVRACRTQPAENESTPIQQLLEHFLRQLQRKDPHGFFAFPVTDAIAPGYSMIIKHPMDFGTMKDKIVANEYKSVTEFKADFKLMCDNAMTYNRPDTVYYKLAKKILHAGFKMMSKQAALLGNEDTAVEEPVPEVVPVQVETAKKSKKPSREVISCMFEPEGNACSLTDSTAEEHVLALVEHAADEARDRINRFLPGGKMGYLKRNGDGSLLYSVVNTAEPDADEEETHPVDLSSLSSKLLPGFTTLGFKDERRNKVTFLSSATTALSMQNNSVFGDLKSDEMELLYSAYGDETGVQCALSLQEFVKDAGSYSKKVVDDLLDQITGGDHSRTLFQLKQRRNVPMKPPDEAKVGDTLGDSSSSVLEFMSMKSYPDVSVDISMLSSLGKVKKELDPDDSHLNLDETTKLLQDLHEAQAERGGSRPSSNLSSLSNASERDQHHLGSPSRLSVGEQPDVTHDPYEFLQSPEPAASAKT
Briefly: Binding affinity to human recombinant biotinylated BRD9 by UV spectrophotometric analysis.

Assay [2] concerns the target T1, Bromodomain-containing protein 9 (Homo sapiens). Briefly: Binding affinity to human recombinant biotinylated BRD9 assessed as retention volume at 4 uM by FAC-MS analysis.
The target in assay [3] is Bromodomain-containing protein 4 (Homo sapiens) (UniProt O60885). Briefly: Binding affinity to BRD4 (unknown origin) at 4 uM by thermal shift assay.
Assay [4] deals with T1, Bromodomain-containing protein 9 (Homo sapiens). In words: Binding affinity to human recombinant biotinylated BRD9 assessed as change in melting temperature at 4 uM by thermal shift assay.
The species named for assay [5] is Homo sapiens. Briefly: Binding affinity to EP300A (unknown origin) at 4 uM by thermal shift assay.
Assay [6] has as its target Chromatin remodeling regulator CECR2 (Homo sapiens) (UniProt Q9BXF3). Briefly: Binding affinity to CECR2 (unknown origin) at 4 uM by thermal shift assay.
In assay [7] the target is T2, Bromodomain and PHD finger-containing protein 3 (Homo sapiens) (UniProt Q9ULD4).
T2 sequence (whole entry): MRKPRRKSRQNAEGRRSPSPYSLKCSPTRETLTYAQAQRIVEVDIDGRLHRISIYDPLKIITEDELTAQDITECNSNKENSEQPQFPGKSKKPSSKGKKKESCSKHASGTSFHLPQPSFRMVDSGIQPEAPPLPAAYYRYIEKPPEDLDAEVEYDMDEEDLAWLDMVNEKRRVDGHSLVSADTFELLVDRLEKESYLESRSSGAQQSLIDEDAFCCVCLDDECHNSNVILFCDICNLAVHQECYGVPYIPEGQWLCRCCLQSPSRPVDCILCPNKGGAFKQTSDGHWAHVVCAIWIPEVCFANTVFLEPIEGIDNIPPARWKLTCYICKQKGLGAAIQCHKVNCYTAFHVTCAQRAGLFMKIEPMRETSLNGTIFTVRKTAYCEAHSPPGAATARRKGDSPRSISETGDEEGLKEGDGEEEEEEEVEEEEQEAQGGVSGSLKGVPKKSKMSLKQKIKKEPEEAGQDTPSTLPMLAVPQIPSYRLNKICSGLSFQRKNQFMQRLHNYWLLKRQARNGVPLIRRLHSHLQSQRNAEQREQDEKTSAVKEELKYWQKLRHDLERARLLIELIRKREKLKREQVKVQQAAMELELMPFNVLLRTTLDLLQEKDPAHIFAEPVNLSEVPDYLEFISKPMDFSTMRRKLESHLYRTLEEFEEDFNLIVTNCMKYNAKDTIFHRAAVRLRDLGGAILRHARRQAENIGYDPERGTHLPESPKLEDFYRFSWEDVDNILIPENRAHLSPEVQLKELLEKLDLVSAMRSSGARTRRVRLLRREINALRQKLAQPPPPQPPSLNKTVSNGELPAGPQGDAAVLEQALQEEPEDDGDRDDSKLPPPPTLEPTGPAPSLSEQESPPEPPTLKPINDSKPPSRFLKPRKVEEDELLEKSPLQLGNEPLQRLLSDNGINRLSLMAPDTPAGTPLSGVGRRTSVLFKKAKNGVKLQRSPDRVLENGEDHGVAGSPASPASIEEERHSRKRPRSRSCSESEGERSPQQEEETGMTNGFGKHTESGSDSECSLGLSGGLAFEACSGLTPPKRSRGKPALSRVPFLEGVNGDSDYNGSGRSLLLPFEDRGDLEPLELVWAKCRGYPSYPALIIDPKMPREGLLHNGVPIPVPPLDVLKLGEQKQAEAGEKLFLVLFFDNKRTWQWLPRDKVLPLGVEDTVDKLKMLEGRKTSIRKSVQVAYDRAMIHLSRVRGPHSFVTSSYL
Briefly: Binding affinity to BRPF3 (unknown origin) at 4 uM by thermal shift assay.

In assay [8] the target is CREB-binding protein (Homo sapiens) (UniProt Q92793). In words: Binding affinity to CREBBP (unknown origin) at 4 uM by thermal shift assay.
In assay [9] the target is T3, Transcription intermediary factor 1-alpha (Homo sapiens) (UniProt O15164).
T3 sequence (whole entry): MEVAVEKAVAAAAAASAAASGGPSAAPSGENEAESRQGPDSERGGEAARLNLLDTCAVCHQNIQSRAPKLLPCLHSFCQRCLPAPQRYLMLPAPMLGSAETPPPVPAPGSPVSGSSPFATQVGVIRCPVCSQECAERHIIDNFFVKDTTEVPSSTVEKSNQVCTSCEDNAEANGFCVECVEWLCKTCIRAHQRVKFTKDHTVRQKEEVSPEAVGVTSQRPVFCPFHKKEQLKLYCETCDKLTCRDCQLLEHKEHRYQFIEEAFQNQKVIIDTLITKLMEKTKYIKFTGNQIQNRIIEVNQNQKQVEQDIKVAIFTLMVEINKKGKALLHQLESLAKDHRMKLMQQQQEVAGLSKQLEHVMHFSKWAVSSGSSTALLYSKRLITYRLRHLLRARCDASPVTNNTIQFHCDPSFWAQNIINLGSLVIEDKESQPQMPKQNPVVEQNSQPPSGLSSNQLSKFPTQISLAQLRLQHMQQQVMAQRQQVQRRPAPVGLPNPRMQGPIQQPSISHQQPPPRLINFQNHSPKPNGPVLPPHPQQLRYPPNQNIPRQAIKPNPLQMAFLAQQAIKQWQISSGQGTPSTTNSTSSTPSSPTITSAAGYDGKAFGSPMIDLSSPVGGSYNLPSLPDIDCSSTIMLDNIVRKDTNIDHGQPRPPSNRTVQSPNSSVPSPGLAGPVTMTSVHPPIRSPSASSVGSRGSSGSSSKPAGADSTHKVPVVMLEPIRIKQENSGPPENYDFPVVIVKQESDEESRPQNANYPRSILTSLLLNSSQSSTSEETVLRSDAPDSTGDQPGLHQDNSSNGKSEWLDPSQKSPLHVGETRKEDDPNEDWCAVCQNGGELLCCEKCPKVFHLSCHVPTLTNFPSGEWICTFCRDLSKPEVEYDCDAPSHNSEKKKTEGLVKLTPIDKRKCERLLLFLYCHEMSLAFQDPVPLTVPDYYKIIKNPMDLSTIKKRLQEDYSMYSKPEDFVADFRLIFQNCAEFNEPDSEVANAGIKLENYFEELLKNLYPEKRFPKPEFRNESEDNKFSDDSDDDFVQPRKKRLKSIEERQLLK
Briefly: Binding affinity to TIF1 (unknown origin) at 4 uM by thermal shift assay.

The species named for assay [10] is Homo sapiens. Briefly: Binding affinity to BRD1A (unknown origin) at 4 uM by thermal shift assay.
The target in assay [11] is T4, Peregrin (Homo sapiens) (UniProt P55201).
T4 sequence (whole entry): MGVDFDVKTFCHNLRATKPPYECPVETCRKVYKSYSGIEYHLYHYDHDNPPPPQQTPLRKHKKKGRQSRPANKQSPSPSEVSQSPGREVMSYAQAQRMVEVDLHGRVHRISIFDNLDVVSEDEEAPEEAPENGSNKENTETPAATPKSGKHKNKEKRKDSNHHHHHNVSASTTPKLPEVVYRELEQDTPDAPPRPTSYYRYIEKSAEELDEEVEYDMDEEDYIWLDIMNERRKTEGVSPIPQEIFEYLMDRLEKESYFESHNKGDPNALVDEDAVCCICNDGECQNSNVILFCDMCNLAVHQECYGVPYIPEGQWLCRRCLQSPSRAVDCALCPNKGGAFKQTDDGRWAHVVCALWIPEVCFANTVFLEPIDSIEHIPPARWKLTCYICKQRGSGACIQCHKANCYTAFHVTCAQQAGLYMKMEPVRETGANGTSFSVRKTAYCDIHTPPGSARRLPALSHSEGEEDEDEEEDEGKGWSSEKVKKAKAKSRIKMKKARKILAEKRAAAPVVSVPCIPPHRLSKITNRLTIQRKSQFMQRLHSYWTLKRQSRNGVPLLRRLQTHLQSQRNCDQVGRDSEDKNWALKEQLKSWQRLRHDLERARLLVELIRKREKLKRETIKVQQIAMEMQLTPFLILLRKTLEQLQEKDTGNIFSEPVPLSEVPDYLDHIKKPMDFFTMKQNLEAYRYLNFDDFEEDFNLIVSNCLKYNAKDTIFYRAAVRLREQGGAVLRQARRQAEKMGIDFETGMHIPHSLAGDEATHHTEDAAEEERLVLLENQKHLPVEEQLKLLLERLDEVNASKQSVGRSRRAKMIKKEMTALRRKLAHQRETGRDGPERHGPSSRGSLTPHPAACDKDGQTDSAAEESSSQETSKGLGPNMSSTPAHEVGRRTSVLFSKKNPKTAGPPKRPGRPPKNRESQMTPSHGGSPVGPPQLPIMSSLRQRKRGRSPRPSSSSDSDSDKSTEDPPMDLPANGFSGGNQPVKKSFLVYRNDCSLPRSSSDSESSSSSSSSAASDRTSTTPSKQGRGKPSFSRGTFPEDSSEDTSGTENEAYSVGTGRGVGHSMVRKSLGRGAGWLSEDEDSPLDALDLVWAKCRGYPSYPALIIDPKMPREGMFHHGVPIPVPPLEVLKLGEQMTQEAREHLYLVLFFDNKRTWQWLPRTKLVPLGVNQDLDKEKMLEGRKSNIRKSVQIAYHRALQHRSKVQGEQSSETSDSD
Briefly: Binding affinity to BRPF1 (unknown origin) at 4 uM by thermal shift assay.

The target of assay [12] is T5, Bromodomain-containing protein 9 (Homo sapiens, UniProt Q9H8M2).
T5 sequence (Q9H8M2 whole entry): T1 sequence (whole entry)
In words: Binding affinity to human recombinant biotinylated BRD9 compound treated in PBS buffer by FAC-MS analysis.

Assay [13] addresses T5, Bromodomain-containing protein 9. In words: Binding affinity to human recombinant biotinylated BRD9 compound treated in ammonium acetate buffer by FAC-MS analysis.
Assay [14] addresses T1, Bromodomain-containing protein 9 (Homo sapiens). In words: Binding affinity to human recombinant biotinylated BRD9 at 4 uM after 120 mins by FAC-MS analysis.
The target is the same in assay [15]. In words: Binding affinity to human recombinant biotinylated BRD9 assessed as retention volume at 50 uM by FAC-MS analysis.

Chain of Chromatin remodeling regulator CECR2 (Homo sapiens) (Q9BXF3 whole entry, looked up): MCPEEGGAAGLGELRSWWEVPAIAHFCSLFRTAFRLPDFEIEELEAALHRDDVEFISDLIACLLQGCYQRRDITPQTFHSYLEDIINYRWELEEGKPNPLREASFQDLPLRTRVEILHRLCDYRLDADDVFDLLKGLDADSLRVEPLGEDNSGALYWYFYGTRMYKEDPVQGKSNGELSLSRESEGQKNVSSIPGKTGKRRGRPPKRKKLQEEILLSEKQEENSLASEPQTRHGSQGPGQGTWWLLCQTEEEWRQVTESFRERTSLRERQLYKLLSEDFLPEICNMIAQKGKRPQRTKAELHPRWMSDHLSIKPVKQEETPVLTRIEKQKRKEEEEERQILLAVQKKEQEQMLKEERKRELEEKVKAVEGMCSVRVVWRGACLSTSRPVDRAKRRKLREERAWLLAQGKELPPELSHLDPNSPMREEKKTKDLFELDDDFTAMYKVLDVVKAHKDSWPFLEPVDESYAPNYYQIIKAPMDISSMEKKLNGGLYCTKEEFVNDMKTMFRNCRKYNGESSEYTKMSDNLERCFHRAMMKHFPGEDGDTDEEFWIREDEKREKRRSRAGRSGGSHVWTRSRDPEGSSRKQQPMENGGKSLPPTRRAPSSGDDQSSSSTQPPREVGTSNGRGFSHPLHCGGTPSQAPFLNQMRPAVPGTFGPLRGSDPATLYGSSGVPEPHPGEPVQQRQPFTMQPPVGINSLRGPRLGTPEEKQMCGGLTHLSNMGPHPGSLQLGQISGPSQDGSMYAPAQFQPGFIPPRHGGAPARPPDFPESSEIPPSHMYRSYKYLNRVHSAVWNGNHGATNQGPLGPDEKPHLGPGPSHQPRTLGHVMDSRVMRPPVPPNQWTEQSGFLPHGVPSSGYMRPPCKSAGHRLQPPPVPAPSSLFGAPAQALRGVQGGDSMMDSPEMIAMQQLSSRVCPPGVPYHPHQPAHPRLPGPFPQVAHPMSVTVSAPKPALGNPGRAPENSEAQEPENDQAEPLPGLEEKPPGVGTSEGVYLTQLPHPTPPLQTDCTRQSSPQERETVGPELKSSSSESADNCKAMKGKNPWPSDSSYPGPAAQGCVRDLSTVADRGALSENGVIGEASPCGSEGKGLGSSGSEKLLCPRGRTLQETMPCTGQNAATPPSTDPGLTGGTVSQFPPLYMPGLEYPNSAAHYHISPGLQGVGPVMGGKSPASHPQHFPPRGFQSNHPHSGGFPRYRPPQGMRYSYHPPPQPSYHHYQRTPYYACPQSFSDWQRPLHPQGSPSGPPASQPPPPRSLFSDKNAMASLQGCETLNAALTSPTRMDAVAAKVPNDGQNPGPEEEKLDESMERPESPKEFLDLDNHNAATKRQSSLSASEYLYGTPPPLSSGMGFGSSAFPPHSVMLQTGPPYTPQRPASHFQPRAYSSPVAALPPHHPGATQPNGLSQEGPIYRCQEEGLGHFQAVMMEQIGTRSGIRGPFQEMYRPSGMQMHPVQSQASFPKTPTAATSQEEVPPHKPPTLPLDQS
Chain of CREB-binding protein (Homo sapiens) (Q92793 2-2442 limits assumed): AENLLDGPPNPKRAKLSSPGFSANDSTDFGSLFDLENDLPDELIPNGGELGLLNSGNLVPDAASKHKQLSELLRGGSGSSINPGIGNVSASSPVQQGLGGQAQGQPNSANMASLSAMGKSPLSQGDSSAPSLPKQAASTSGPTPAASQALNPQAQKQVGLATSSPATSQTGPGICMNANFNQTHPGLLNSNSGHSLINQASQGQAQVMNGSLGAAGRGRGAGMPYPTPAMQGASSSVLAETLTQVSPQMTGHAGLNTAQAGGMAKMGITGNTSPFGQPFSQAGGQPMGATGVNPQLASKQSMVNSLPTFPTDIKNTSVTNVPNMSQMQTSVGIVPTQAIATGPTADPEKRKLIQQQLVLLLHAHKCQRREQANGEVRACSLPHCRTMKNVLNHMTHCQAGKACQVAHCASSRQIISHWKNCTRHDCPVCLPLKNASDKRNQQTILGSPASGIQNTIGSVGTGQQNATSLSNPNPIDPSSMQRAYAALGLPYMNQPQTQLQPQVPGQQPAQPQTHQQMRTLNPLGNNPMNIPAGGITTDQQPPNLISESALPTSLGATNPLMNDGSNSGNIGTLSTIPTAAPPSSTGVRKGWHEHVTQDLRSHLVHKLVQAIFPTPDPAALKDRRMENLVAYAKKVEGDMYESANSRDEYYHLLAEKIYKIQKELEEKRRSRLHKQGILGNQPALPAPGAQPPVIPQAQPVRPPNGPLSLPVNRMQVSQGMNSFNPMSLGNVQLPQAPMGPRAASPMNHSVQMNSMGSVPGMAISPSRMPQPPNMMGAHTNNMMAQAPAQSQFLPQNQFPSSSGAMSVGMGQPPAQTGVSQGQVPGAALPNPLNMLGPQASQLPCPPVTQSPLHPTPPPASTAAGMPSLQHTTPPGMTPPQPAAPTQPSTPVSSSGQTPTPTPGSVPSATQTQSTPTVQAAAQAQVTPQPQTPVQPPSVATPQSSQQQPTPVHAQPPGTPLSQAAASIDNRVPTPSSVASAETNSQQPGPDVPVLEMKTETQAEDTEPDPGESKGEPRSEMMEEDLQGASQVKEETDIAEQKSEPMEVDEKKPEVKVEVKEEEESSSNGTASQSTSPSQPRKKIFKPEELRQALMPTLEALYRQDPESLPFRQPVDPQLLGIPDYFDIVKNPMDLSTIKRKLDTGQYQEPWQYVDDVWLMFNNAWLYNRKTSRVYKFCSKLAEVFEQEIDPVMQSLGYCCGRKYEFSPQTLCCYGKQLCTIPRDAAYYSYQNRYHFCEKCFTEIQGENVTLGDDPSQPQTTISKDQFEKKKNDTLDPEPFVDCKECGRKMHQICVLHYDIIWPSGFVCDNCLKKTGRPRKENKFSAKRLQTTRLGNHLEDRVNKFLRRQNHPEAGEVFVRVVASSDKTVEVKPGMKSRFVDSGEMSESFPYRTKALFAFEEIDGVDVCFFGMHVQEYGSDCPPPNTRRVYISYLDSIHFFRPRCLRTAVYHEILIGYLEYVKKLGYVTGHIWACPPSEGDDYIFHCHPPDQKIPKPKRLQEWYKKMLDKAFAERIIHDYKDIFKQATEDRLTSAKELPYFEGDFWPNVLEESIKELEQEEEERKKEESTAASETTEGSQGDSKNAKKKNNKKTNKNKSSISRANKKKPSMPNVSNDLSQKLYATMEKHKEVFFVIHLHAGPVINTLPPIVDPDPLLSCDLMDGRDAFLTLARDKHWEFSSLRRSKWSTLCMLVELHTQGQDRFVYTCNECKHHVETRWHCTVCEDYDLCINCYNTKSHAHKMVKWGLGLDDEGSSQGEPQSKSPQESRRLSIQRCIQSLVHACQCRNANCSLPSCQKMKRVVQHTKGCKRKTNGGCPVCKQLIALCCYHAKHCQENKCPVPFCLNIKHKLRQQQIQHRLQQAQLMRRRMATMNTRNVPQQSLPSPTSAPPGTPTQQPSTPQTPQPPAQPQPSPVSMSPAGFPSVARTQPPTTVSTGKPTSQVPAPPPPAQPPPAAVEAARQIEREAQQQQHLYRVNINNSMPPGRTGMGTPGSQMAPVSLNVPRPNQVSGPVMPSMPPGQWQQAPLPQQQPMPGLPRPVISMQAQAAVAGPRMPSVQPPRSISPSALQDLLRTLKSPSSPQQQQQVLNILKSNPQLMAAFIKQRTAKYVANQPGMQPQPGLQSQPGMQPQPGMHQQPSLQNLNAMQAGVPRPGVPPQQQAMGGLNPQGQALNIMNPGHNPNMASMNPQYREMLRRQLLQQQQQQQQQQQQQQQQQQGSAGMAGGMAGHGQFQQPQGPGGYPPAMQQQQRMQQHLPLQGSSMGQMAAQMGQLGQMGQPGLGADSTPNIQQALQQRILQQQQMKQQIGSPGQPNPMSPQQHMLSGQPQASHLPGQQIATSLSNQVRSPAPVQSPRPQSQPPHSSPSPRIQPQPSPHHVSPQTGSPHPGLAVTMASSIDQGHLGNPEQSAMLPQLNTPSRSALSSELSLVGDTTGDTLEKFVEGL

In the case of `Cc1ccc(-c2cc(N)c3nnc(C)n3n2)cc1NS(=O)(=O)c1ccc(Cl)c(Cl)c1`, the result in assay [1], in assay [3] and in assay [5] was Active. The Activity in assay [2] amounted to 1170 µL. Besides, the ΔTm (commonly the change in melting temperature against a reference sample) in [4] is 4.3 °C.

With `FC(F)(F)c1nnc2ccc(-c3ccccc3)nn12`, in [1], the outcome was Active. Further, the result in assay [6], in assay [7], in assay [3], in assay [8], in [9] and in assay [10] was inactive. Further, the result in assay [11] and in assay [5] was inactive. For the same molecule, the Activity in assay [2] stood at 212 µL. Further, the shift in melting temperature (ΔTm) in assay [4] is -0.6 °C.

`CCOC(=O)N(c1cc(-c2cc(N)c3nnc(C)n3n2)ccc1C)S(=O)(=O)c1ccccc1Cl`: the outcome in assay [1] was Active.

For the molecule `Cc1ccc(-c2cc(N)c3nnc(C)n3n2)cc1NS(=O)(=O)c1ccccc1Cl`, the outcome in assay [1] and in assay [3] was Active. Further, the Activity in [2] is 784 µL. The ΔTm in [4] stood at 2.4 °C.

For the molecule `Cc1ccc(-c2cc(N)c3nnc(C)n3n2)cc1NS(=O)(=O)c1cccc(Cl)c1`, in assay [1], the result was Active.

Turning to `CCOC(=O)N(c1cc(-c2cc(N)c3nnc(C)n3n2)ccc1C)S(=O)(=O)c1ccc(Cl)cc1`, the outcome in assay [1] was Active. For the same molecule, the outcome in assay [6], in [7], in [3], in assay [8], in assay [9] and in assay [10] was inactive. The result in assay [11] and in assay [5] was inactive. The Activity in assay [2] came to 947 µL. For the same molecule, in assay [4], the ΔTm was found to be 2.7 °C.

`Cc1nnc2c(NC(=O)OC(C)(C)C)cc(-c3ccccc3)nn12`: the Kd in [12] and in assay [13] was 8.35 µM in each case.

In the case of `Cc1nnc2c(N)cc(Cl)nn12`, in [1], the result was Active.

For the molecule `CCOC(=O)Nc1cc(-c2ccc(C)c(NS(C)(=O)=O)c2)nn2c(C)nnc12`, the Activity in [2] was more than 3600 µL; in [15], 324 µL. In addition, the result in assay [14] was inactive. Moreover, the ΔTm in assay [4] turned out to be 8.8 °C.

`COc1ccc(-c2ccc3nnc(C(F)(F)F)n3n2)cc1`: the result in [1] was Active. Moreover, the outcome in [6], in assay [7], in [3], in [8], in assay [9] and in assay [10] was inactive. Moreover, the outcome in [11] and in assay [5] was inactive. Also, in assay [2], the Activity is 270 µL. Also, the ΔTm in assay [4] stood at 0.6 °C.
